Data reported in US20260166039A1 (SCHRÖDINGER, INC., priority 2022, published 2026).

Biological target: T1, Wee1 kinase domain (Homo sapiens, UniProt P30291)
T1 construct: Wee1 kinase domain was purchased from Carna (catalog #05-177); purchased Carna 05-177
Test: Wee1 Kinase Biochemical Assay (ADP-Glo)
Settings: Wee1 kinase domain, 15 uM ATP, ADP-Glo
Protocol: Wee1 Kinase Biochemical Assay Protocol
Wee1 kinase domain was purchased from Carna (catalog #05-177). Wee1 kinase activity was determined with Poly(Lys,Tyr 4:1) hydrobromide as a substrate (Sigma-Aldrich) and by measuring ADP production using the ADP-Glo Kinase Assay kit (Promega) following the manufacturer's instructions. The kinase reaction was performed using the following conditions:
Buffer: 40 mM Tris-HCl, 20 mM magnesium chloride, supplemented with 0.1 mg/mL bovine serum albumin and 2 mM DTT. The final reaction mix contained 1 nM Wee1 enzyme, 15 uM ATP, and 2 ng/mL Poly(Lys,Tyr 4:1) hydrobromide substrate. The reaction time was 4 hours at 25° C.
The ADP-Glo signal was measured using the Envision plate reader and the percentage inhibition of kinase activity calculated for each inhibitor tested. Percent inhibition of Wee1 kinase activity was calculated based on the following formula.
[formula] • SSample: the signal of compounds • SHigh Ctrl: the signal of high control (DMSO) • SLow Ctrl: the signal of low control (positive control Wee1 inhibitor at saturating concentration)

T1 sequence (P30291 299-569 limits assumed): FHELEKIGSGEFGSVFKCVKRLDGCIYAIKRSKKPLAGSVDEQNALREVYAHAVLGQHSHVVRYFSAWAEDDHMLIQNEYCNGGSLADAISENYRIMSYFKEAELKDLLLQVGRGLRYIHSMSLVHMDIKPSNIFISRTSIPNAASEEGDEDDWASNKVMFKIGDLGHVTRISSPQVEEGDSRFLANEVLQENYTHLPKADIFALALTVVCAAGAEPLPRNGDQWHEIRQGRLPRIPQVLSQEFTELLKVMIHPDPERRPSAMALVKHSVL

| IC50 [nM] | SMILES |
| --- | --- |
| 100 to 1000 | CC1(C)C[C@@H]2N(c3cccc(N=S(C)(C)=O)n3)c3nc(Nc4ccc(C5CNC5)nc4)ncc3[C@]2(C)CO1 (single isomer, unassigned) [Example 191] |
| 100 to 1000 | CN1CC(c2ccc(Nc3ncc4c(n3)N(c3cccc(N=S(C)(C)=O)n3)[C@H]3CC(C)(C)OC[C@@]43C)cn2)C1 (single isomer, unassigned) [Example 193] |
| 100 to 1000 | CN1CC[C@H](n2cc(Nc3ncc4c(n3)N(c3cccc(N=S(C)(C)=O)n3)[C@H]3CC(C)(C)OC[C@@]43C)cn2)C1 (single isomer, unassigned) [Example 197] |
| 10 to 100 | CN1CCC[C@H](n2cc(Nc3ncc4c(n3)N(c3cccc(N=S(C)(C)=O)n3)[C@H]3CC(C)(C)OC[C@@]43C)cn2)C1 (single isomer, unassigned) [Example 200] |
| 100 to 1000 | CN1CCC(c2cc(Nc3ncc4c(n3)N(c3cccc(N=S(C)(C)=O)n3)[C@H]3CC(C)(C)OC[C@@]43C)on2)CC1 (single isomer, unassigned) [Example 203] |
| 100 to 1000 | CN1CCC(n2cnc(Nc3ncc4c(n3)N(c3cccc(N=S(C)(C)=O)n3)[C@H]3CC(C)(C)OC[C@@]43C)c2)CC1 (single isomer, unassigned) [Example 206] |
| 10 to 100 | CN1CC(n2cc(Nc3ncc4c(n3)N(c3cccc(N=S(C)(C)=O)n3)[C@H]3CC(C)(C)OC[C@@]43C)cn2)C1 (single isomer, unassigned) [Example 208] |
| 10 to 100 | CN1CCC[C@@H]1c1ccc(Nc2ncc3c(n2)N(c2cccc(N=S(C)(C)=O)n2)[C@H]2CC(C)(C)OC[C@@]32C)cn1 (single isomer, unassigned) [Example 209] |
| 10 to 100 | CC1(C)C[C@@H]2N(c3cccc(N=S(C)(C)=O)n3)c3nc(Nc4ccc([C@H]5CCCN5)nc4)ncc3[C@]2(C)CO1 (single isomer, unassigned) [Example 211] |
| 10 to 100 | CC1(C)C[C@@H]2N(c3cccc(N=S(C)(C)=O)n3)c3nc(Nc4ccc([C@@H]5CCCN5)nc4)ncc3[C@]2(C)CO1 (single isomer, unassigned) [Example 213] |
| 100 to 1000 | CN1CCC[C@H]1c1ccc(Nc2ncc3c(n2)N(c2cccc(N=S(C)(C)=O)n2)[C@H]2CC(C)(C)OC[C@@]32C)cn1 (single isomer, unassigned) [Example 215] |
| 10 to 100 | CN1C[C@@H]2CN(c3ccc(Nc4ncc5c(n4)N(c4cccc(N=S(C)(C)=O)n4)[C@H]4CC(C)(C)OC[C@@]54C)cc3)C[C@@H]2C1 (single isomer, unassigned) [Example 218] |
| 100 to 1000 | CN1CC2(C1)CN(c1ccc(Nc3ncc4c(n3)N(c3cccc(N=S(C)(C)=O)n3)[C@H]3CC(C)(C)OC[C@@]43C)cc1)C2 (single isomer, unassigned) [Example 220] |
| 10 to 100 | CN1CCC(n2ccc(Nc3ncc4c(n3)N(c3cccc(N=S(C)(C)=O)n3)[C@@H]3CC(C)(C)OC[C@]43C)n2)CC1 (single isomer, unassigned) [Example 229] |
| 10 to 100 | C[C@H]1COC(=O)N1c1cccc(N2c3nc(Nc4ccc(N5CCN(C)CC5)cc4)ncc3[C@@]3(C)COC(C)(C)C[C@@H]23)n1 (single isomer, unassigned) [Example 234] |
| 10 to 100 | Cc1cc(Nc2ncc3c(n2)N(c2cccc(N4C(=O)OC[C@@H]4C)n2)[C@H]2CC(C)(C)OC[C@@]32C)ccc1N1CCN(C)CC1 (single isomer, unassigned) [Example 236] |
| < 10 | Cc1cc(Nc2ncc3c(n2)N(c2cccc(N4C(=O)OC[C@@H]4C)n2)[C@H]2CC(C)(C)OC[C@@]32C)ccc1C1CCN(C)CC1 (single isomer, unassigned) [Example 239] |
| 100 to 1000 | C[C@H]1COC(=O)N1c1cccc(N2c3nc(Nc4ccc(N5CCN(C)CC5)nc4)ncc3[C@]3(C)COC(C)(C)C[C@H]23)n1 (single isomer, unassigned) [Example 240] |
| 10 to 100 | C[C@H]1COC(=O)N1c1cccc(N2c3nc(Nc4cnn(C5CCN(C)CC5)c4)ncc3[C@]3(C)COC(C)(C)C[C@H]23)n1 (single isomer, unassigned) [Example 242] |
| 10 to 100 | C[C@H]1COC(=O)N1c1cccc(N2c3nc(Nc4ccc(N5C[C@@H]6C[C@H]5CN6C)cc4)ncc3[C@]3(C)COC(C)(C)C[C@H]23)n1 (single isomer, unassigned) [Example 244] |
| 100 to 1000 | C[C@H]1COC(=O)N1c1cccc(N2c3nc(Nc4ccc(N5CCN(C)CC5)nn4)ncc3[C@]3(C)COC(C)(C)C[C@H]23)n1 (single isomer, unassigned) [Example 248] |
| 10 to 100 | C[C@H]1COC(=O)N1c1cccc(N2c3nc(Nc4ccc(C5CCN(C)CC5)cc4)ncc3[C@]3(C)COC(C)(C)C[C@H]23)n1 (single isomer, unassigned) [Example 250] |

| IC50 [nM] | SMILES |
| --- | --- |
| 100 to 1000 | C[C@H]1COC(=O)N1c1cccc(N2c3nc(Nc4cn(C5CCN(C)CC5)nn4)ncc3[C@]3(C)COC(C)(C)C[C@H]23)n1 (single isomer, unassigned) [Example 252] |
| 10 to 100 | C[C@H]1COC(=O)N1c1cccc(N2c3nc(Nc4cnn(C5CCNCC5)c4)ncc3[C@]3(C)COC(C)(C)C[C@H]23)n1 (single isomer, unassigned) [Example 254] |
| 10 to 100 | C[C@H]1COC(=O)N1c1cccc(N2c3nc(Nc4ccc([C@@H]5CCNC5)nc4)ncc3[C@]3(C)COC(C)(C)C[C@H]23)n1 (single isomer, unassigned) [Example 256] |
| 100 to 1000 | C[C@H]1COC(=O)N1c1cccc(N2c3nc(Nc4ccc([C@H]5CCNC5)nc4)ncc3[C@]3(C)COC(C)(C)C[C@H]23)n1 (single isomer, unassigned) [Example 258] |
| 10 to 100 | C[C@H]1COC(=O)N1c1cccc(N2c3nc(Nc4ccc(N5CCNCC5)cc4)ncc3[C@]3(C)COC(C)(C)C[C@H]23)n1 (single isomer, unassigned) [Example 261] |
| 10 to 100 | Cc1cc(Nc2ncc3c(n2)N(c2cccc(N4C(=O)OC[C@@H]4C)n2)[C@H]2CC(C)(C)OC[C@@]32C)ccc1[C@H]1CCNC1 (single isomer, unassigned) [Example 266] |
| 10 to 100 | Cc1cc(Nc2ncc3c(n2)N(c2cccc(N4C(=O)OC[C@@H]4C)n2)[C@H]2CC(C)(C)OC[C@@]32C)ccc1[C@@H]1CCNC1 (single isomer, unassigned) [Example 268] |
| 10 to 100 | C[C@H]1COC(=O)N1c1cccc(N2c3nc(Nc4ccc(N5CCN(C)CC5=O)cc4)ncc3[C@]3(C)COC(C)(C)C[C@H]23)n1 (single isomer, unassigned) [Example 270] |
| 10 to 100 | C[C@H]1COC(=O)N1c1cccc(N2c3nc(Nc4ccn(C5CCN(C)CC5)c(=O)c4)ncc3[C@]3(C)COC(C)(C)C[C@H]23)n1 (single isomer, unassigned) [Example 272] |
| 10 to 100 | C[C@H]1COC(=O)N1c1cccc(N2c3nc(Nc4ccc([C@@H]5CCNC5)cc4)ncc3[C@]3(C)COC(C)(C)C[C@H]23)n1 (single isomer, unassigned) [Example 274] |
| 10 to 100 | C[C@H]1COC(=O)N1c1cccc(N2c3nc(Nc4ccc(N5C[C@H]6C[C@@H]5CN6)cc4)ncc3[C@]3(C)COC(C)(C)C[C@H]23)n1 (single isomer, unassigned) [Example 276] |
| 10 to 100 | C[C@H]1COC(=O)N1c1cccc(N2c3nc(Nc4ccc([C@H]5CCNC5)cc4)ncc3[C@]3(C)COC(C)(C)C[C@H]23)n1 (single isomer, unassigned) [Example 278] |
| 100 to 1000 | C[C@H]1COC(=O)N1c1cccc(N2c3nc(Nc4ccc(O[C@H]5CCN(C)C5)nc4)ncc3[C@]3(C)COC(C)(C)C[C@H]23)n1 (single isomer, unassigned) [Example 280] |
| 100 to 1000 | C[C@H]1COC(=O)N1c1cccc(N2c3nc(Nc4ccc(O[C@@H]5CCN(C)C5)nc4)ncc3[C@]3(C)COC(C)(C)C[C@H]23)n1 (single isomer, unassigned) [Example 282] |
| 10 to 100 | C[C@H]1COC(=O)N1c1cccc(N2c3nc(Nc4ccc(O[C@H]5CCNC5)nc4)ncc3[C@]3(C)COC(C)(C)C[C@H]23)n1 (single isomer, unassigned) [Example 284] |
| 100 to 1000 | C[C@H]1COC(=O)N1c1cccc(N2c3nc(Nc4ccc(O[C@@H]5CCNC5)nc4)ncc3[C@]3(C)COC(C)(C)C[C@H]23)n1 (single isomer, unassigned) [Example 286] |
| 10 to 100 | Cc1cc(Nc2ncc3c(n2)N(c2cccc(N4C(=O)OC[C@@H]4C)n2)[C@H]2CC(C)(C)OC[C@@]32C)ccc1N1C[C@H]2C[C@@H]1CN2C (single isomer, unassigned) [Example 288] |
| < 10 | C[C@H]1COC(=O)N1c1cccc(N2c3nc(Nc4ccc(N5C[C@H]6C[C@@H]5CN6C)c(F)c4)ncc3[C@]3(C)COC(C)(C)C[C@H]23)n1 (single isomer, unassigned) [Example 290] |
| 10 to 100 | C[C@H]1COC(=O)N1c1cccc(N2c3nc(Nc4ccc(N5C[C@@H]6C[C@H]5CN6C)c(F)c4)ncc3[C@]3(C)COC(C)(C)C[C@H]23)n1 (single isomer, unassigned) [Example 292] |
| 10 to 100 | Cc1cc(Nc2ncc3c(n2)N(c2cccc(N4C(=O)OC[C@@H]4C)n2)[C@H]2CC(C)(C)OC[C@@]32C)ccc1N1C[C@@H]2C[C@H]1CN2C (single isomer, unassigned) [Example 294] |
| < 10 | C[C@H]1COC(=O)N1c1cccc(N2c3nc(Nc4ccc(C5CCN(C)CC5)nc4)ncc3[C@]3(C)COC(C)(C)C[C@H]23)n1 (single isomer, unassigned) [Example 296] |
